The test has as its target T1, sOGT (Homo sapiens, UniProt O15294).
T1 construct: ncOGT and sOGT are identical to known splice variants; His8 (C); made in house; host or cells: E. coli BL21(DE3)
T1 sequence (O15294 1-665 isoform O15294-4): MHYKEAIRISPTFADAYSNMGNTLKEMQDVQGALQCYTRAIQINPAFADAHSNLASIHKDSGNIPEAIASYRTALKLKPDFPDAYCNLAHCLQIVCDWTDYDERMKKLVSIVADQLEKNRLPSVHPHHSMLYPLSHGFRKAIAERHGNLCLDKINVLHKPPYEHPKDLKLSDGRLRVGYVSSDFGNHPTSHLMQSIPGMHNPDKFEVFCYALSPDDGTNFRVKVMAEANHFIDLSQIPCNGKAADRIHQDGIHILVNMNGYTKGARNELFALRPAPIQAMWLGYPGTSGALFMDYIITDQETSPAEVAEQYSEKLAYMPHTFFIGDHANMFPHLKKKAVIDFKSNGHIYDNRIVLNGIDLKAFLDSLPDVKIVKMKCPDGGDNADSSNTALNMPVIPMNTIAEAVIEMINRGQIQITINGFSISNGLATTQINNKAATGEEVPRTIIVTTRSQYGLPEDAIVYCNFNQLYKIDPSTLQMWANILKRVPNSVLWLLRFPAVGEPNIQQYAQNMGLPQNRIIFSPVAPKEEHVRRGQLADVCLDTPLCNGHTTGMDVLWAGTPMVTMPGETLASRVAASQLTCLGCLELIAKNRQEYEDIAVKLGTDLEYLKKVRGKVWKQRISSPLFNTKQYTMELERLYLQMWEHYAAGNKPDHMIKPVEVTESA
Briefly: Fluorescence polarization displacement of probe 3 from sOGT (validation with UDP and UDP-GlcNAc). Format: binding. As for the experimental part:
20 μL of this solution is transferred to wells of a 384-well microplate. […] Fluorescence polarization was measured using a Perkin Elmer Envision® microplate reader. Bach series was performed in triplicate and the average of each data point was converted from mP to anisotropy then fitted to the following equation:
[L]0=(KD(Amax−A)/Kd(A−Amin)+1)([E]0−Kd(A−Amin)/(Amax−A)−[t]0(A−Amin)/(Amax−Amin)) eq 3
where A=measured anisotropy at a particular total concentration of ligand (L), sOGT (E) and probe 3 (t), Amin=minimum polarization (i.e., anisotropy of free probe), Amax=final anisotropy (i.e., anisotropy of probe 3 bound entirely to sOGT), KD=dissociation constant of the ligand, Kd=dissociation constant of the probe 3.
A general note: Polarisation of emitted light reports the rotation of a fluorescent probe.

Structures are written as SMILES.

Take `O=c1ccn([C@@H]2O[C@H](COP(=O)(O)OP(=O)(O)O)[C@@H](O)[C@H]2O)c(=O)[nH]1` [UDP]: the Kd (50 nM probe 3, […] sOGT, ligand 50 μM to 98 nM, read-out: KD (dissociation constant) from displacement of probe 3 from sOGT) came out at 800 ± 300 nM. Moreover, for the setting “at high concentrations of ligand”, the “extent of displacement of probe 3 from sOGT” value is “completely displaced probe 3 from sOGT”.

The Kd is the free concentration of one partner at which half of the binding sites on the other are occupied at equilibrium, for simple one-to-one binding.

Values taken from patent US20090325944A1, “Methods and Compositions for Modulating Glycosylation” (priority 2006, published 2009).
